Laboratory results reported in publication PMC1885804, “Preferential inhibition of xanthine oxidase by 2-amino-6-hydroxy-8-mercaptopurine and 2-amino-6-purine thiol” (BMC Biochemistry, 2007).
Where two headings read alike, the source gives them in different places.

Columns and labels:
[1] = target: T1, bovine XOD (Bos taurus, UniProt P80457); experiment: IC50 determination, XOD-catalyzed hydroxylation (uric acid at 293 nm, 6TUA at 350 nm); type: biochemical; settings: for IC50: 2.8 U/ml bovine XOD, ± SEM
T1 construct: Bovine milk XOD was procured from Calbiochem (La Jolla, CA, USA); purchased Calbiochem (La Jolla, CA, USA); host or cells: bovine milk
Description: One enzyme unit is defined as amount of enzyme required to produce 1 μM uric acid per min per ml reaction mixture from 10 μM of xanthine at 30°C, pH 7.4.
The IC50 values were determined for all the purine and pyrazolopyrimidine-based compounds. […] GRAFIT software procured from Erithacus Software Limited, UK, written by Dr R.J. Leatherbarrow, was employed for calculating the IC50 values.

[2] = target: T1, bovine XOD; experiment: Steady-state kinetics of XOD (Michaelis Menten and Lineweaver Burk plots); type: biochemical
Description: The double reciprocal Lineweaver Burk (LB) plots were drawn to find the mechanism of inhibition of XOD by APT and AHMP (Figure 6, 7, 8, 9).
(§1) Percent residual activity of formation of uric acid and 6TUA was determined by subtracting the percentage inhibition from 100%. […] Km and kcat were determined in the absence of the inhibitors.
For competitive inhibition,
-1/Km app = -1/Km (1+ [I]/Ki)
For non-competitive inhibition,
1/Vmax app = (1+ [I]/Ki)/Vmax
The modified LB equation for the mixed inhibition is
1/v = 1/Vmax app + […]/Vmax app [S]0
where, Km app and Vmax app are defined by equations (4) and (5).
Km app = Km {1+([I0]/Ki)}/{1+ ([I0]/KI)}
Vmax app = Vmax/{1+ ([I0]/KI)}
Km app is the apparent Michaelis constant and Vmax app is the apparent maximum velocity of the reaction of XOD with its substrates. Ki and KI are the inhibition constants of the inhibitors.

[3] = system: swiss male mice; experiment: Single dose acute toxicity study, fourteen days observation; type: in vivo
Description: In order to evaluate the toxicity of the preferential inhibitors of XOD, the single dose acute toxicity study was performed for both the preferential inhibitors on swiss male mice following a fourteen days observation period. The body weight of the animal ranged from 25–30 gm. […] Gross necropsy of each animal of all groups was conducted and organ weight was recorded after the termination of the study.

[4] = target: T1, bovine XOD; experiment: In vitro bi-substrate (xanthine + 6MP) simulative experiment, percent residual XOD activity; type: biochemical; settings: for Inhibition of 6MP hydroxylation, bi-substrate reaction / Inhibition of xanthine hydroxylation, bi-substrate reaction: observed for 20 min
Description: Percent residual activity for generation of uric acid and 6TUA was determined in the presence of various concentrations of AHMP, APT and allopurinol (Table 2). […] Absorption spectra of the time dependent XOD-mediated bi-substrate reaction in the presence of APT and AHMP are depicted in Figure 4 and Figure 5, respectively.
as §1

[5] = target: T2, XOD (Bos taurus, UniProt P80457); experiment: In vitro tri-substrate (hypoxanthine, xanthine, 6MP) simulative study; type: biochemical; set-up: Bovine milk XOD was procured from Calbiochem (La Jolla, CA, USA); purchased Calbiochem (La Jolla, CA, USA); host or cells: bovine milk; settings: xanthine and 6MP together, data not shown
[6] = set-up: method as in doi:10.1016/0006-2952(63)90012-1, doi:10.1016/0002-9343(66)90118-5, PMID 14070377; settings: combination with 6MP; cited from earlier work
[7] = target: T2, XOD
[8] = target: T2, XOD; set-up: Bovine milk XOD was procured from Calbiochem (La Jolla, CA, USA); purchased Calbiochem (La Jolla, CA, USA); host or cells: bovine milk; settings: cited from earlier work
[9] = system: XOD and XDH; set-up: method as in doi:10.1016/0006-2952(63)90012-1; settings: at doses that produced significant toxic effects; cited from earlier work
[10] = substrate 6MP, read-out: Ki (competitive inhibition constant; Ki^1 for APT, Ki^2 for AHMP)
[11] = substrate xanthine, read-out: Ki (competitive inhibition constant; Ki^1 for APT, Ki^2 for AHMP)
[12] = single dose 2.5, 5, 10 mg/kg intravenously, mice
[13] = single dose 2.5, 5, 10 mg/kg intravenously, mice, fourteen days
[14] = read-out: % Activity with 6MP as substrate
[15] = read-out: % Activity with xanthine as substrate
[16] = read-out: % Activity with xanthine as substrate (converted)
[17] = 10 μM hypoxanthine, 0.2 M sodium phosphate buffer pH 7.4, read-out: IC50, XOD inhibition, substrate hypoxanthine
[18] = 10 μM xanthine, pH 7.4, read-out: IC50, XOD inhibition, substrate xanthine (xanthine to uric acid)
[19] = IC50, XOD inhibition, substrate 6MP (6MP to 6TUA), 10 μM 6MP, pH 7.4, 60 min reaction

T2 sequence (P80457 whole entry): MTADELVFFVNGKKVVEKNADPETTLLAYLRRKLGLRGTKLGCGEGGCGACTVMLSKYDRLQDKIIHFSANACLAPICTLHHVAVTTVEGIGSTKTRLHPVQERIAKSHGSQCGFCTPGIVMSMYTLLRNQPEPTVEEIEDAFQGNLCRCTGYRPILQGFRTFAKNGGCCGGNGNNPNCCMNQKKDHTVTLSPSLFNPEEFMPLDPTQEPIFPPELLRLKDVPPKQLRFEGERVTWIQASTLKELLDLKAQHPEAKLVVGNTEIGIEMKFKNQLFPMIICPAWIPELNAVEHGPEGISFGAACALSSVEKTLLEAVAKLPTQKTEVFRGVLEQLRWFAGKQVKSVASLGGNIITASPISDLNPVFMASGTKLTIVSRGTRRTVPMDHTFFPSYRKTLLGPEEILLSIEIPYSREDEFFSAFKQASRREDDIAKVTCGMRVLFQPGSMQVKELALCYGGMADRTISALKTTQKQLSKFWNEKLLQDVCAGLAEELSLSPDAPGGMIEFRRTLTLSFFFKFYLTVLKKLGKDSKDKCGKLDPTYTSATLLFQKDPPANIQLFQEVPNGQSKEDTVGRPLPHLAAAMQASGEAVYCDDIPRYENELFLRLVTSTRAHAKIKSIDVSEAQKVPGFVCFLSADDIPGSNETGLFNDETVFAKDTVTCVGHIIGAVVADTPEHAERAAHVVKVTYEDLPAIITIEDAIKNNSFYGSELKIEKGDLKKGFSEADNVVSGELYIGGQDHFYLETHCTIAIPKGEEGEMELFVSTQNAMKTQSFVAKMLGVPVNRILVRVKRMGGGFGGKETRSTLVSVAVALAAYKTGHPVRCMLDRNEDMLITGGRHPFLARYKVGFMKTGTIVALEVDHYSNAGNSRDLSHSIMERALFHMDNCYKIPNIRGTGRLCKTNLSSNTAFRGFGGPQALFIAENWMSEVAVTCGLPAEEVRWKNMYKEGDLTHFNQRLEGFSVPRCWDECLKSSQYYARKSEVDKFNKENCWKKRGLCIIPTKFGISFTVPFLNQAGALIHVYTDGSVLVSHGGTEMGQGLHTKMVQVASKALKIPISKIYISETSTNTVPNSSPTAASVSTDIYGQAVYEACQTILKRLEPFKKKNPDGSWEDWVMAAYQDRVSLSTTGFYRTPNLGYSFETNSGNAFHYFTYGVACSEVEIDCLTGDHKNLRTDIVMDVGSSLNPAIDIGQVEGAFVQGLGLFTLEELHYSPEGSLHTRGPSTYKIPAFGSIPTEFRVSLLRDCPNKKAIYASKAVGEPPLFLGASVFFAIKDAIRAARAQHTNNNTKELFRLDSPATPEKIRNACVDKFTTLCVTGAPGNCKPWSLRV
T1 sequence (P80457 whole entry): as above

Question: Which “Preferential inhibition of the 6MP hydroxylation over xanthine” value [1] does the source give for `O=C(Nc1ncnc2nc[nH]c12)c1ccccc1` [6-(N-benzoylamino)purine] here?
Answer: did not exhibit any preferential inhibition

Question: With `Sc1ncnc2nc[nH]c12` [6MP, 6-mercaptopurine] as the compound, how does the “Vmax (maximum reaction velocity)” value [2] read?
Answer: 2.85 ± 0.02 µM/min

Question: Which Mechanism of inhibition ([2]; substrate 6MP) does the source give for `Nc1nc2[nH]c(S)nc2c(=O)[nH]1` [AHMP, 2-amino-6-hydroxy-8-mercaptopurine] here?
Answer: mixed inhibition mechanism

Question: And the Ki ([2]; substrate 6MP, read-out: KI^2 (non-competitive inhibition constant) (converted))?
Answer: 0.98 µM

Question: What about the Ki [2, 10] of the same compound?
Answer: 0.96 ± 0.01 µM

Question: And the Mechanism of inhibition ([2]; substrate xanthine)?
Answer: mixed type of inhibition

Question: What about the Ki ([2]; substrate xanthine, read-out: KI^2 (non-competitive inhibition constant) (converted)) of the same compound?
Answer: 6.24 µM

Question: What about the Ki [2, 11] of the same compound?
Answer: 5.78 ± 0.48 µM

Question: And the Gross necropsy ([3]; after termination of the study)?
Answer: no changes in vital organs

Question: And the “Organ weight as compared with the control groups” value ([3]; after termination of the study)?
Answer: No difference in organ weight

Question: And the “Food intake as compared to allopurinol treated groups” value [3, 12]?
Answer: marginally less

Question: And the “Weekly food intake as compared to vehicle treated groups” value [3, 12]?
Answer: decreased

Question: What about the “Changes in the initial and final body weight” value [3, 13] of the same compound?
Answer: No significant changes

Question: What about the General behavioral toxicity [3, 13] of the same compound?
Answer: No differences in general behavioral toxicity

Question: And the “Inhibition of 6MP hydroxylation, bi-substrate reaction” value ([4]; inhibitor 2 μM)?
Answer: Almost complete inhibition

Question: And the “Inhibition of xanthine hydroxylation, bi-substrate reaction” value ([4]; inhibitor 2 μM)?
Answer: little inhibition

Question: And the activity at 0.5 µM [4, 14]?
Answer: 59 ± 4.01%

Question: And the activity at 1 µM [4, 14]?
Answer: 47%

Question: And the activity at 2.5 µM [4, 14]?
Answer: 18%

Question: And the activity at 0.5 µM [4, 15]?
Answer: 90 ± 1.09%

Question: And the activity at 1 µM [4, 16]?
Answer: 85%

Question: And the activity at 2.5 µM [4, 16]?
Answer: 64%

Question: What about the “Discriminatory inhibition in tri-substrate simulative study” value [5] of the same compound?
Answer: discriminatory inhibition of the 6MP to 6TUA conversion and not hypoxanthine to uric acid conversion

Question: What about the “Difference in the IC50 value in the first and the late phases” value [1] of the same compound?
Answer: no such difference

Question: What about the “Whether the compound is an XOD substrate” value [1] of the same compound?
Answer: none were found to be XOD substrates

Question: And the IC50 [1, 17]?
Answer: 5.08 ± 0.04 µM

Question: And the IC50 [1, 18]?
Answer: 17.7 ± 0.29 µM

Question: And the IC50 [1, 19]?
Answer: 0.54 ± 0.01 µM

Question: Which results are given for `Oc1ncnc2[nH]ncc12` [ALLOPURINOL, allopurinol]?
Answer: Potentiation of the antitumor and immunosuppressive properties of 6MP [6]: three to four; Gross necropsy ([3]; mouse, in vivo): no changes in vital organs; Organ weight as compared with the control groups ([3]; mouse, in vivo): No difference in organ weight; Mortality [3, 13]: no mortality; activity at 0.5 µM [4, 14]: 83 ± 1.05%; activity at 1 µM [4, 14]: 48%; activity at 2.5 µM [4, 14]: 16%; activity at 0.5 µM [4, 15]: 95 ± 1.09%; activity at 1 µM [4, 15]: 68%; activity at 2.5 µM [4, 15]: 30%; Substrate-induced enzymatic electron transfer / ROS generation on interaction with XOD [7]: led to substrate-induced enzymatic electron transfer via DCPIP

Question: Which “Preferential inhibition of the 6MP hydroxylation over xanthine” value [1] does the source give for `Nc1ncnc2[nH]ncc12` [APP, 4-aminopyrazolo 3,4-d pyrimidine] here?
Answer: did not exhibit any preferential inhibition

Question: And the IC50 [1, 17]?
Answer: 6.79 ± 0.28 µM

Question: And the IC50 [1, 18]?
Answer: 20.8 ± 0.84 µM

Question: What about the IC50 ([1]; read-out: IC50, XOD inhibition, substrate 6MP (6MP to 6TUA), 10 μM 6MP, pH 7.4, 60 min reaction) of the same compound?
Answer: 12.9 ± 0.69 µM

Question: For `Nc1nc2nc[nH]c2c(=S)[nH]1` [APT, 2-amino-6-purinethiol], which Mechanism of inhibition ([2]; substrate 6MP) is on record?
Answer: competitive inhibition mechanism

Question: What about the Ki [2, 10] of the same compound?
Answer: 1.3 ± 0.09 µM

Question: What about the Mechanism of inhibition ([2]; substrate xanthine) of the same compound?
Answer: Competitive

Question: And the Ki [2, 11]?
Answer: 6.61 ± 0.28 µM

Question: What about the Gross necropsy ([3]; mouse, in vivo) of the same compound?
Answer: no changes in vital organs

Question: What about the “Organ weight as compared with the control groups” value ([3]; mouse, in vivo) of the same compound?
Answer: No difference in organ weight

Question: And the Mortality [3, 13]?
Answer: no mortality

Question: And the “Inhibition of 6MP hydroxylation, bi-substrate reaction” value ([4]; inhibitor 5 μM)?
Answer: Almost complete inhibition

Question: What about the “Inhibition of xanthine hydroxylation, bi-substrate reaction” value ([4]; inhibitor 5 μM) of the same compound?
Answer: little inhibition

Question: What about the activity at 0.5 µM [4, 14] of the same compound?
Answer: 73 ± 2.5%

Question: And the activity at 1 µM [4, 14]?
Answer: 66%

Question: And the activity at 2.5 µM [4, 14]?
Answer: 25%

Question: What about the activity at 0.5 µM [4, 15] of the same compound?
Answer: 96 ± 1%

Question: What about the activity at 1 µM [4, 16] of the same compound?
Answer: 90%

Question: And the activity at 2.5 µM [4, 16]?
Answer: 80%

Question: What about the “Discriminatory inhibition in tri-substrate simulative study” value [5] of the same compound?
Answer: discriminatory inhibition of the 6MP to 6TUA conversion and not hypoxanthine to uric acid conversion

Question: What about the “Difference in the IC50 value in the first and the late phases” value [1] of the same compound?
Answer: no such difference

Question: And the “Whether the compound is an XOD substrate” value [1]?
Answer: none were found to be XOD substrates

Question: And the IC50 [1, 17]?
Answer: 7.28 ± 0.17 µM

Question: What about the IC50 [1, 18] of the same compound?
Answer: 16.4 ± 0.21 µM

Question: And the IC50 [1, 19]?
Answer: 2.57 ± 0.08 µM

Question: Which “Type of XOD inhibition” value [8] does the source give for `COc1cc(-c2cnn3c(=O)nc[n-]c23)ccc1[S+]([O-])c1ccccc1.[Na+]` (stereo not drawn) [BOF-4272] here?
Answer: mixed type of inhibition

Question: For `O=c1c(O)c(-c2ccccc2)oc2cc(O)cc(O)c12` [Galagin], which “Type of XOD inhibition” value [8] is on record?
Answer: mixed type of inhibition

Question: With `O=c1c(O)c(-c2ccc(O)cc2O)oc2cc(O)cc(O)c12` [Morin] as the compound, how does the “Type of XOD inhibition” value [8] read?
Answer: mixed type of inhibition

Question: For `O=c1[nH]c(=O)c2nc[nH]c2[nH]1` [Xanthine, xanthine], which “Vmax (maximum reaction velocity)” value [2] is on record?
Answer: 114.54 ± 0.24 µM/min

Question: With `NNC(N)=O` [semicarbazide] as the compound, how does the “Inhibition of XOD and XDH in vivo” value [9] read?
Answer: less than 50%
